One data set deals with T1, collagen I (Bos taurus, UniProt P02453+P02465).
T1 construct: purchased Inamed, Freemont, Calif; Nutragen
The data set can be described thus: Cryo-SEM measurements on collagen I, fibril diameter. It counts as biochemical. Conditions: 4 mg/mL collagen, 10:1 collagen:treatment, cryo-SEM 20,000×. Here is the method: Gels were made with Nutragen collagen (Inamed, Freemont, Calif.) at a final concentration of 4 mg/mL collagen. Nutragen stock is 6.4 mg/mL in 10 mM HCl. Gel preparation was performed on ice, and fresh samples were made before each test. The collagen solution was adjusted to physiologic pH and salt concentration, by adding appropriate volumes of 10×PBS (phosphate buffered saline), 1×PBS, and 1M NaOH. For most experiments, samples of DS, decorin, DS-SILY, or DS-Dc13 were added at a 10:1 collagen:treatment molar ratio by a final 1×PBS addition (equal volumes across treatments) in which the test samples were dissolved at appropriate concentrations. In this way, samples are constantly kept at pH 7.4 and physiologic salt concentration. Collagen-alone samples received a 1×PBS addition with no sample dissolved. Fibrillogenesis will be induced by incubating neutralized collagen solutions at 37° C. overnight in a humidified chamber to avoid dehydration. Gel solutions with collagen:treatment molar ratios of other than 10:1 were prepared similarly.
Gels for cryo-SEM were formed, as in EXAMPLE 16, directly on the SEM stage and incubated at 37° C. overnight. The stages were then secured in a cryo-holder and plunged into liquid nitrogen slush. Samples were then transferred to a Gatan Alto 2500 pre-chamber cooled to −170° C. under vacuum. A free-break surface was created with a cooled scalpel, and each sample evaporated under sublimation conditions for 20 min. The sample was coated by platinum sputter coating for 120 s. Samples were transferred to the cryo-stage at −130° C. and regions with similar orientation were imaged for comparison across treatments. Analysis of the images was performed to determine the fibril diameter distribution, presented in histograms adjacent the corresponding image in FIG. 14, and average fibril diameter, FIG. 17 an 18;. Fibril diameter was calculated using ImageJ software (NIH) measuring individual fibrils by hand (drawing a line across fibrils and measuring its length after properly setting the scale). At least 45 independent fibril measurement were recorded for average fibril diameter calculations.

The test system of a further data set is Human dermal fibroblasts. The data set can be described thus: TGF-β1 production by human dermal fibroblasts (ELISA). It is filed as cell-based. Conditions: 1.4 μM treatment, 48 hours. Here is the method:
Human dermal fibroblasts (Cascade Biologics) were seeded onto 96-well tissue culture polystyrene plates at a seeding density of 1.83×10^3 cells/well. Cells adhered overnight and cell medium was aspirated. 100 μL/well of cell medium containing a final concentration of 1.4 μM treatment delivered from a concentrated solution of treatment in 1×PBS was added to the cells. After 48 hours, cell medium was removed and frozen at −80 C until further testing. TGF-β1 was measured by ELISA using a kit and protocol from R&D Systems.
Background: An ELISA detects its analyte on a solid surface through an enzyme-linked reagent.

Data set [1] has as its system Human coronary artery smooth muscle cells (HCA SMC). The experiment in a line: Gel compaction by smooth muscle cells in collagen gels. It is filed as cell-based. The following applies: Days 3 and 5. Here is the method: Human coronary artery smooth muscle cells (HCA SMC) (Cascade Biologics) were cultured in growth medium (Medium 231 supplemented with smooth muscle growth factor). Cells from passage 3 were used for all experiments. Differentiation medium (Medium 231 supplemented with 1% FBS and 1× pen/strep) was used for all experiments unless otherwise noted.
Collagen gels were prepared with each additive as described with the exception that the 1×PBS example addition was omitted to accommodate the addition of cells in media. After incubating on ice for 30 min, HCA SMCs in differentiation medium were added to the gel solutions to a final concentration of 1×10^6 cells/mL. Gels were formed in quadruplicate in 48-well non-tissue culture treated plates (Costar) for 6 hrs before adding 500 μL/well differentiation medium. Gels were freed from the well edges after 24 hrs. Medium was changed every 2-3 days and images for compaction were taken at the same time points using a Gel Doc System (Bio-Rad). The cross-sectional area of circular gels correlating to degree of compaction was determined using ImageJ software (NIH). Gels containing no cells were used as a negative control and cells in collagen gels absent additive were used as a positive control. […] By day 10 all gels had compacted to approximately 10% of the original gel area, and differences between additives were small.

For another data set, the system named is HCA SMCs. The experiment in a line: Measurement of elastin (Fastin assay) in cell-seeded collagen gels. It is filed as cell-based, human. The following applies: gels cultured for 10 days. Here is the method: Collagen gels seeded with HCA SMCs were prepared as described in EXAMPLE 30. Differentiation medium was changed every three days and gels were cultured for 10 days. Collagen gels containing no cells were used as a control. Gels were rinsed in 1×PBS overnight to remove serum protein, and gels were tested for elastin content using the Fastin elastin assay per manufacturers protocol (Biocolor, County […].). Briefly, gels were solubilized in 0.25 M oxalic acid by incubating at 100° C. for 1 hr. Elastin was precipitated and samples were then centrifuged at 11,000×g for 10 min. The solubilized collagen supernatant was removed and the elastin pellet was stained by Fastin Dye Reagent for 90 min at room temperature. Samples were centrifuged at 11,000×g for 10 min and unbound dye in the supernatant was removed. Dye from the elastin pellets was released by the Fastin Dye Dissociation Reagent, and 100 μL samples were transferred to a 96-well plate (Costar). Absorbance was measured at 513 nm, and elastin content was calculated from an α-elastin standard curve.

The subject of the next data set is Long-Evans rats. The data set can be described thus: Rat incisional model, visual scar scoring (visible scar length). It counts as in vivo. As to the method: Using sterile techniques, longitudinal wounds were incised on shaved dorsal skin of the rats. A 4 cm incision was cut through the panniculus down to the skeletal musculature, and a 250 μL single dose of either 10 mg/mL hyaluronic acid (HA) or HA+DS-SILY was applied to the open wound by a syringe. DS-SILY was tested at 0.5, 1, and 2.5 mg/mL mixed with HA. The incision was then sutured closed and animals were returned to individual cages and monitored for complications. Negative control rats received no treatment and were treated identically. A pilot study was performed (n=3) at time points 3, 7, 10, 14, and 21 days, followed by a higher powered study (n=9) for 21 and 28 day time points.
Photographs of scars were taken at the time of necropsy using a digital camera with predetermined manual settings mounted on a camera stand to standardize focal distance
(FIG. 36). A scale bar was included in each image and was used to determine the visible scar length. At the 21 and 28-day times points, five blinded observers traced the visible scar length using ImageJ software (NIH) to give a quantitative measure of visual scar healing.

Ends that are not written are not given here.

T1 sequence (P02453 162-1217 limits assumed): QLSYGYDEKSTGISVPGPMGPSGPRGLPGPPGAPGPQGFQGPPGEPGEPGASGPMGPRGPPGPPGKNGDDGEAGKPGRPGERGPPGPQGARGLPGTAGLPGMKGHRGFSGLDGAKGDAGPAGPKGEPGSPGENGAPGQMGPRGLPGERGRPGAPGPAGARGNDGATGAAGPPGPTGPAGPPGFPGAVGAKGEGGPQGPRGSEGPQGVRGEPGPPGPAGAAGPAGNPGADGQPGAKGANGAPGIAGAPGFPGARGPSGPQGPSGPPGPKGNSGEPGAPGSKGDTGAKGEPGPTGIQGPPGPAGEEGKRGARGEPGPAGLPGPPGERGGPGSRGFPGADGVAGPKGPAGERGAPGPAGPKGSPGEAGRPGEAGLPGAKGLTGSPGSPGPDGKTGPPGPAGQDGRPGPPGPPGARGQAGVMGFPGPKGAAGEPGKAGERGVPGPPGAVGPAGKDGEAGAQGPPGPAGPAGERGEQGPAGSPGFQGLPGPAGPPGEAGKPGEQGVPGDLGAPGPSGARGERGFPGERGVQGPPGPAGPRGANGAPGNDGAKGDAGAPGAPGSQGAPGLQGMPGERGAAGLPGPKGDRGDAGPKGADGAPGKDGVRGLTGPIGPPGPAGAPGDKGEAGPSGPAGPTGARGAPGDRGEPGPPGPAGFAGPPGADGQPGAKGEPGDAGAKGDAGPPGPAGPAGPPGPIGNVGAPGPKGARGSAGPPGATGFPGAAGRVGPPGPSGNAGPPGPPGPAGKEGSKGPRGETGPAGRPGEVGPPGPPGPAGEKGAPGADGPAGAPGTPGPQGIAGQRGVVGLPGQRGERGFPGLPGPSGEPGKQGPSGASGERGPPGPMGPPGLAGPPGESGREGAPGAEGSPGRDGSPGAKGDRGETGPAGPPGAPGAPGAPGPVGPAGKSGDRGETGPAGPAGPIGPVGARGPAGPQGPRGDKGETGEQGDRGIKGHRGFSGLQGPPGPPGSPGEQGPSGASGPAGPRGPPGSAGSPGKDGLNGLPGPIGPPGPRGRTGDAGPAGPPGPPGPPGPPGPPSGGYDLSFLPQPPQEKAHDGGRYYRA
T1 sequence (P02465 80-1117 limits assumed): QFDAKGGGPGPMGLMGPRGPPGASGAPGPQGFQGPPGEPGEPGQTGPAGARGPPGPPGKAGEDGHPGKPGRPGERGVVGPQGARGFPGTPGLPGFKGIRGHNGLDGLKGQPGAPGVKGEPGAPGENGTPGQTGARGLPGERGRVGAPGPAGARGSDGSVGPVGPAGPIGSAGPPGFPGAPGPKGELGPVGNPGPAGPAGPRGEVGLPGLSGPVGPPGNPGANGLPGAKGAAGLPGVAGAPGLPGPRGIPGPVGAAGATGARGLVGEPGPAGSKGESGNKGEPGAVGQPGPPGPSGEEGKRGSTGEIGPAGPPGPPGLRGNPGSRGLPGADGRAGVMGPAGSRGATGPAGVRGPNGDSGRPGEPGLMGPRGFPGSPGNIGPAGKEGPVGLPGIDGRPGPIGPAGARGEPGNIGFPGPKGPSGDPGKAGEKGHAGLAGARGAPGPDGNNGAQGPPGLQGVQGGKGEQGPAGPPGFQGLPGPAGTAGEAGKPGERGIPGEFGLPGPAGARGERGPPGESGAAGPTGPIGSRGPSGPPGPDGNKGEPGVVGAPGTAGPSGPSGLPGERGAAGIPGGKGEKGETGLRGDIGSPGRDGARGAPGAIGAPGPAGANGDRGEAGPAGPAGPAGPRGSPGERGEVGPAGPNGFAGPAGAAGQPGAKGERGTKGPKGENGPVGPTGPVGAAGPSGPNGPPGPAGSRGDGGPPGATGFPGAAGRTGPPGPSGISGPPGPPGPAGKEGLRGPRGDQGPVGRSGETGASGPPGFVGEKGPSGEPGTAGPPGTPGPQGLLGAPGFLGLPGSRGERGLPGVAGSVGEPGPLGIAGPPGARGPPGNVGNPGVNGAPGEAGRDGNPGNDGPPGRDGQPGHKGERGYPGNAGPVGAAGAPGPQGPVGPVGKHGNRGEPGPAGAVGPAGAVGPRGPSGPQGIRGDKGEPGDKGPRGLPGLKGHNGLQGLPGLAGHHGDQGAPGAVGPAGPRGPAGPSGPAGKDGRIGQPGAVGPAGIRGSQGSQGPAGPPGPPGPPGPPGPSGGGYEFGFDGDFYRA

For “DS-SILY: collagen-binding peptidoglycan in which a single SILY peptide was conjugated to dermatan sulfate via PDPH (RRANAALKAGELYKSILYGC; also: single peptide conjugated to dermatan sulfate via PDPH, site not given here)”, the average fibril diameter result in the data set with collagen I is listed as “significant decrease in average fibril diameter”. Also, the “TGF-β1 in cell medium” value in the data set on Human dermal fibroblasts is “significantly decreased TGF-β1”. Moreover, in data set [1], the “gel compaction at early time points” value is “significantly compacted more than gels made of collagen alone or collagen with dermatan sulfate”. In addition, the elastin production entry with HCA SMCs is “significantly increased elastin production over all samples”. Besides, the visible scar length result is recorded as “decreased visible scar length measured by 5 blinded observers was significant” in the data set on Long-Evans rats (21 days, both doses (0.125 mg, 0.25 mg)) and “not significant at 28 days compared to HA control” with Long-Evans rats (28 days, high dose (0.25 mg)).

The values above are taken from patent US20170283458A1, “COLLAGEN-BINDING SYNTHETIC PEPTIDOGLYCANS FOR WOUND HEALING” (Symic Biomedical, Inc., priority 2009, published 2017).
